According to ChEMBL document CHEMBL3870335, “Bioactivity of topologically confined gramicidin A dimers” (Bioorg Med Chem, 2017):
≈ marks a conversion by molar mass, not a printed value. Where a SMILES comes first, the peptide text is derived from it. [ ]: non-standard residue; d: D form. The star is where a group is joined. NHCH2CH2OH = OCCN*; For = O=C*

Tests used:
Staphylococcus aureus = test: Antimicrobial activity against methicillin-resistant Staphylococcus aureus ATCC 43300 after 16 to 20 hrs by broth microdilution method; type: functional
Escherichia coli = test: Antimicrobial activity against Escherichia coli ATCC 25922 after 16 to 20 hrs by broth microdilution method; type: functional
Proteus mirabilis = test: Antimicrobial activity against Proteus mirabilis ATCC 7002 after 16 to 20 hrs by broth microdilution method; type: functional
Enterococcus faecalis = test: Antimicrobial activity against Enterococcus faecalis ATCC 29212 after 16 to 20 hrs by broth microdilution method; type: functional
Pseudomonas aeruginosa = test: Antimicrobial activity against Pseudomonas aeruginosa ATCC 27853 after 16 to 20 hrs by broth microdilution method; type: functional
Klebsiella pneumoniae = test: Antimicrobial activity against Klebsiella pneumoniae ATCC 13883 after 16 to 20 hrs by broth microdilution method; type: functional
Enterococcus faecium = test: Antimicrobial activity against Enterococcus faecium DSMZ 20477 after 16 to 20 hrs by broth microdilution method; type: functional
Streptococcus pneumoniae = test: Antimicrobial activity against Streptococcus pneumoniae serotype 19A after 16 to 20 hrs by broth microdilution method; type: functional
[1] = test system: Staphylococcus epidermidis; test: Antimicrobial activity against Staphylococcus epidermidis PP62A after 16 to 20 hrs by broth microdilution method; type: functional
Plasmodium falciparum [2] = test: Antimalarial activity against chloroquine-resistant Plasmodium falciparum Dd2 after 72 hrs by NBT based LDH assay; type: functional; details: Dd2, 72 h
Plasmodium falciparum [3] = test: Antimalarial activity against chloroquine-sensitive Plasmodium falciparum 3D7 after 72 hrs by NBT based LDH assay; type: functional; details: 3D7, 72 h
[4] = Hemolytic activity against human erythrocytes at 20 to 140 uM after 30 mins; type: ADME, cell-based; details: erythrocyte, 0.5 h
[5] = Induction of bulk conductivity in soybean asolectin planar lipid bilayers assessed as residual conductance of black lipid bilayer at 0.5 nM at pH 8
[6] = Induction of bulk conductivity in soybean asolectin planar lipid bilayers assessed as residual conductance of black lipid bilayer at 500 nM at pH 8
[7] = Induction of bulk conductivity in soybean asolectin planar lipid bilayers assessed as residual conductance of black lipid bilayer at 1 nM at pH 8

Structure (SMILES) | MIC (Staphylococcus aureus) [µg/mL] | MIC (Escherichia coli) [µg/mL] | MIC (Proteus mirabilis) [µg/mL] | MIC (Enterococcus faecalis) [µg/mL] | MIC (Pseudomonas aeruginosa) [µg/mL] | MIC (Klebsiella pneumoniae) [µg/mL] | MIC (Enterococcus faecium) [µg/mL] | MIC (Streptococcus pneumoniae) [µg/mL] | MIC [1] [µg/mL] | IC50 (Plasmodium falciparum [2]) [nM] | IC50 (Plasmodium falciparum [3]) [nM] | Activity [4] | Activity [5] [uS] | Activity [6] [uS] | Activity [7] [uS]
CC[C@H]1OC(=O)[C@H](C)[C@@H](O[C@H]2C[C@@](C)(OC)[C@@H](O)[C@H](C)O2)[C@H](C)[C@@H](O[C@@H]2O[C@H](C)C[C@H](N(C)C)[C@H]2O)[C@](C)(O)C[C@@H](C)C(=O)[C@H](C)[C@@H](O)[C@]1(C)O [ERYTHROMYCIN] | 0.5 (≈ 0.681 µM) | > 32 | > 64 | 1 (≈ 1.36 µM) | > 64 | > 64 | 2 to 4 (≈ 2.73 to 5.45 µM) | > 64 | > 64 |  |  |  |  |  | 
CC(C)C[C@@H](NC(=O)[C@H](C)NC(=O)CNC(=O)[C@@H](NC=O)C(C)C)C(=O)N[C@@H](C)C(=O)N[C@@H](C(=O)N[C@H](C(=O)N[C@@H](C(=O)N[C@@H](Cc1c[nH]c2ccccc12)C(=O)N[C@H](CC(C)C)C(=O)N[C@@H](Cc1c[nH]c2ccccc12)C(=O)N[C@H](CC(C)C)C(=O)N[C@@H](Cc1c[nH]c2ccccc12)C(=O)N[C@H](CC(C)C)C(=O)N[C@@H](Cc1c[nH]c2ccccc12)C(=O)NCCO)C(C)C)C(C)C)C(C)C (For-VGA[dL]A[dV]V[dV]W[dL]W[dL]W[dL]W-NHCH2CH2OH) | 64 (≈ 34 µM) | > 64 | > 64 | 1 (≈ 0.531 µM) | > 64 | > 64 | 2 (≈ 1.06 µM) | 0.05 (≈ 0.0266 µM) | 0.5 (≈ 0.266 µM) | 0.014 | 0.05 | Toxic | > 50 |  | 
CC(C)C[C@H]1NC(=O)[C@H](C)NC(=O)CNC(=O)[C@H](C(C)C)NC(=O)CCSSCCNC(=O)[C@H](Cc2c[nH]c3ccccc23)NC(=O)[C@@H](CC(C)C)NC(=O)[C@H](Cc2c[nH]c3ccccc23)NC(=O)[C@@H](CC(C)C)NC(=O)[C@H](Cc2c[nH]c3ccccc23)NC(=O)[C@@H](CC(C)C)NC(=O)[C@H](Cc2c[nH]c3ccccc23)NC(=O)[C@@H](C(C)C)NC(=O)[C@H](C(C)C)NC(=O)[C@@H](C(C)C)NC(=O)[C@H](C)NC(=O)[C@@H](CC(C)C)NC(=O)[C@H](C)NC(=O)CNC(=O)[C@H](C(C)C)NC(=O)CCSSCCNC(=O)[C@H](Cc2c[nH]c3ccccc23)NC(=O)[C@@H](CC(C)C)NC(=O)[C@H](Cc2c[nH]c3ccccc23)NC(=O)[C@@H](CC(C)C)NC(=O)[C@H](Cc2c[nH]c3ccccc23)NC(=O)[C@@H](CC(C)C)NC(=O)[C@H](Cc2c[nH]c3ccccc23)NC(=O)[C@@H](C(C)C)NC(=O)[C@H](C(C)C)NC(=O)[C@@H](C(C)C)NC(=O)[C@H](C)NC1=O | > 64 | > 64 | > 64 | > 64 | > 64 | > 64 | > 64 | > 64 | > 64 | 2.7 | 2.9 |  |  | < 0.3 | 
CC(=O)N[C@H](C(=O)NCC(=O)N[C@@H](C)C(=O)N[C@H](CC(C)C)C(=O)N[C@@H](C)C(=O)N[C@@H](C(=O)N[C@H](C(=O)N[C@@H](C(=O)N[C@@H](Cc1c[nH]c2ccccc12)C(=O)N[C@H](CC(C)C)C(=O)N[C@@H](Cc1c[nH]c2ccccc12)C(=O)N[C@H](CC(C)C)C(=O)N[C@@H](Cc1c[nH]c2ccccc12)C(=O)N[C@H](CC(C)C)C(=O)N[C@@H](Cc1c[nH]c2ccccc12)C(=O)NCCS)C(C)C)C(C)C)C(C)C)C(C)C | > 64 | > 64 | > 64 | > 64 | > 64 | > 64 | > 64 | 0.05 (≈ 0.0261 µM) | > 64 | 8 | 5.5 |  | 1.9 | 93 | 
CC(C)C[C@@H](NC(=O)[C@H](C)NC(=O)CNC(=O)[C@@H](NC(=O)CCS)C(C)C)C(=O)N[C@@H](C)C(=O)N[C@@H](C(=O)N[C@H](C(=O)N[C@@H](C(=O)N[C@@H](Cc1c[nH]c2ccccc12)C(=O)N[C@H](CC(C)C)C(=O)N[C@@H](Cc1c[nH]c2ccccc12)C(=O)N[C@H](CC(C)C)C(=O)N[C@@H](Cc1c[nH]c2ccccc12)C(=O)N[C@H](CC(C)C)C(=O)N[C@@H](Cc1c[nH]c2ccccc12)C(=O)NCCO)C(C)C)C(C)C)C(C)C |  | > 64 |  |  |  |  |  |  |  |  |  |  |  | 42 | 0.7
